“Also recorded” adds a separate entry of the source.
What was measured:
Type in all cases: physicochemical
[1] = Observation test of long-term sample storage (crystal transformation); conditions: long-term sample storage in high humidity; DSC scanning
[2] = Solubility test according to Chinese Pharmacopoeia Edition 2005; conditions: for Dissolving status: within 30 minutes
Protocol: Test was performed according to the Examples of Chinese Pharmacopoeia Edition 2005. Method: a definite quantity of the Polymorph I of 3-(4-amino-1-oxo-1,3-dihydro-2H-isoindole-2-yl)-piperidine-2,6-dione (hemihydrate) measured accurately was added into a certain quantity of solvent slowly, while the mixture was shaken strongly for 30 seconds every 5 minutes and the dissolving status within 30 minutes was observed. Results were listed in Tab. 1.
Test was performed according to the Examples of Chinese Pharmacopoeia Edition 2005. Method: a definite quantity of the (acetonitrile) solvated Polymorph II of 3-(4-amino-1-oxo-1,3-dihydro-2H-isoindole-2-yl)-piperidine-2,6-dione measured accurately was added into a certain quantity of solvent slowly, while the mixture was shaken strongly for 30 seconds every 5 minutes and the dissolving status within 30 minutes was observed. Results were listed in Tab. 61.
Test was performed according to the Examples of Chinese Pharmacopoeia Edition 2005. Method: a definite quantity of the (acetone) solvated polymorph III of 3-(4-amino-1-oxo-1,3-dihydro-2H-isoindole-2-yl)-piperidine-2,6-dione measured accurately was added into a certain quantity of solvent slowly while the mixture was shaken strongly for 30 seconds every 5 minutes and the dissolving status within 30 minutes was observed. Results were listed in Tab. 11.

[3] = High humidity test (room temperature, 75±5% relative humidity); conditions: for Change of appearance and content (in words) / Moisture absorption (in words): high humidity test, summary; for Appearance / Content / Weight gain of moisture absorption: room temperature, 75±5% relative humidity
Protocol: (§1) The raw material of Polymorph 1 of 3-(4-amino-1-oxo-1,3-dihydro-2H-isoindole-2-yl)-piperidine-2,6-dione (hemihydrate) was distributed homogeneously in open petri dish with thickness of the raw material not more than 5 mm and put into thermostatic and humidostatic incubator at room temperature (about 25° C.) and 75±5% relative humidity. Sample was tested at the 5th and 10th day respectively and the results were contrasted with that of the Day 0. Results were listed in Tab. 4. After high humidity test of 75±5% relative humidity for 10 days, the X-ray powder diffraction pattern was shown in FIG. 9; DSC diagram was in FIG. 10-1; TGA diagram was in FIG. 10-2.
as §1, with “Polymorph II” for “Polymorph 1”, “3-(4-amino-1-oxo-1,3-dihydro-2H-isoindole-2-yl)-piperidine-2,6-dione” for “3-(4-amino-1-oxo-1,3-dihydro-2H-isoindole-2-yl)-piperidine-2,6-dione (hemihydrate)”, “Tab. 9.” for “Tab. 4.”, “FIG. 20;” for “FIG. 9;”, “FIG. 21-1;” for “FIG. 10-1;”, “FIG. 21-2.” for “FIG. 10-2.”
as §1, with “Polymorph III” for “Polymorph 1”, “3-(4-amino-1-oxo-1,3-dihydro-2H-isoindole-2-yl)-piperidine-2,6-dione” for “3-(4-amino-1-oxo-1,3-dihydro-2H-isoindole-2-yl)-piperidine-2,6-dione (hemihydrate)”, “Tab. 14.” for “Tab. 4.”, “FIG. 31;” for “FIG. 9;”, “FIG. 32-1;” for “FIG. 10-1;”, “FIG. 32-2.” for “FIG. 10-2.”

[4] = High temperature test (60° C.); conditions: for Appearance / Content / Related substance: 60° C.; for Variation of appearance and content (in words): high temperature (60° C.) test, summary
Excerpt: The conditions and methods of related substance test involved in this invention were in accordance with HPLC (Appendix VD of Chinese Pharmacopoeia Edition 2005).
Chromatographic conditions and system applicability: octadecylsilane bonded silica as the filler; 0.01 mol/L of potassium dihydrogen phosphate (adjusted to pH 3.5 by phosphoric acid)-methanol-acetonitrile (80:15:5) as the mobile phase; detection wavelength was 240 nm; the number of theoretical plates should be not less than 2000, calculated according to the peak of 3-(4-amino-1-oxo-1,3-dihydro-2H-isoindole-2-yl)-piperidine-2,6-dione. The resolution of the peak of 3-(4-amino-1-oxo-1,3-dihydro-2H-isoindole-2-yl)-piperidine-2,6-dione from the peaks of adjacent impurities should meet requirements.
The raw material of Polymorph I of 3-(4-amino-1-oxo-1,3-dihydro-2H-isoindole-2-yl)-piperidine-2,6-dione (hemihydrate) was put into a clean sealed glass bottle and then put in thermostatic drying chamber at 60° C. Sample was tested at the 5th and 10th day respectively and the results were contrasted with that of the Day 0. Results were listed in Tab. 3. After high temperature test of 60° C. for 10 days, the X-ray powder diffraction pattern was shown FIG. 7; DSC diagram was in FIG. 8.
The raw material of Polymorph II of 3-(4-amino-1-oxo-1,3-dihydro-2H-isoindole-2-yl)-piperidine-2,6-dione was put into a clean sealed glass bottle and then put in thermostatic drying chamber at 60° C. Sample was tested at the 5th and 10th day respectively and the results were contrasted with that of the Day 0. Results were listed in Tab. 8. After high temperature test of 60° C. for 10 days, the X-ray powder diffraction pattern was shown in FIG. 18; DSC diagram was in FIG. 19.
The raw material of Polymorph III of 3-(4-amino-1-oxo-1,3-dihydro-2H-isoindole-2-yl)-piperidine-2,6-dione was put into a clean sealed glass bottle and then put in thermostatic drying chamber at 60° C. Sample was tested at the 5th and 10th day respectively and the results were contrasted with that of the Day 0. Results were listed in Tab. 13. After high temperature test of 60° C. for 10 days, the X-ray powder diffraction pattern was shown in FIG. 29; DSC diagram was in FIG. 30.

SMILES: Nc1cccc2c1CN(C1CCC(=O)NC1=O)C2=O (single isomer, unassigned) [Polymorph III, 3-(4-amino-1-oxo-1,3-dihydro-2H-isoindole-2-yl)-piperidine-2,6-dione]
- Crystal transformation [1]: a small amount of Polymorph III had transformed to Polymorph I
- Conclusion (solubility) ([2]; 0.1 mol/L HCl solution): slightly soluble
- Dissolving status ([2]; 0.1 mol/L HCl solution): fully
- Conclusion (solubility) ([2]; 0.1 mol/L NaOH solution): sparingly soluble
- Dissolving status ([2]; 0.1 mol/L NaOH solution): fully
- Conclusion (solubility) ([2]; DMF (N,N-dimethylformamide)): soluble
- Dissolving status ([2]; DMF): fully
- Conclusion (solubility) ([2]; DMSO (dimethylsulfoxide)): soluble
- Dissolving status ([2]; DMSO): fully
- Conclusion (solubility) ([2]; acetic acid): sparingly soluble
- Dissolving status ([2]; acetic acid): fully
- Conclusion (solubility) ([2]; acetone): slightly soluble
- Dissolving status ([2]; acetone): fully
- Conclusion (solubility) ([2]; acetonitrile): slightly soluble
- Dissolving status ([2]; acetonitrile): fully
- Conclusion (solubility) ([2]; ethanol): very slightly soluble and very
- Dissolving status ([2]; ethanol): fully
- Conclusion (solubility) ([2]; ethyl acetate): very slightly soluble and very
- Dissolving status ([2]; ethyl acetate): fully
- Conclusion (solubility) ([2]; methanol): slightly soluble
- Dissolving status ([2]; methanol): fully
- Conclusion (solubility) ([2]; water): very slightly soluble; also recorded: practically
- Dissolving status ([2]; water): cannot fully
- Change of appearance and content (in words) [3]: few obvious change
- Moisture absorption (in words) [3]: lower moisture absorption
- Appearance ([3]; 0 days): off-white powder
- Content ([3]; 0 days): 99.86%
- Appearance ([3]; 5 days): off-white powder
- Content ([3]; 5 days): 99.83%
- Weight gain of moisture absorption ([3]; 5 days): 1.25%
- Appearance ([3]; 10 days): off-white powder
- Content ([3]; 10 days): 99.82%
- Weight gain of moisture absorption ([3]; 10 days): 1.37%
- Appearance ([4]; 0 days): off-white powder
- Content ([4]; 0 days): 99.86%
- Related substance ([4]; 0 days): 0.07%
- Appearance ([4]; 5 days): off-white powder
- Content ([4]; 5 days): 99.84%
- Related substance ([4]; 5 days): 0.07%
- Appearance ([4]; 10 days): off-white powder
- Content ([4]; 10 days): 99.83%
- Related substance ([4]; 10 days): 0.08%
- Variation of appearance and content (in words) [4]: few significant variation

SMILES: Nc1cccc2c1CN(C1CCC(=O)NC1=O)C2=O (single isomer, unassigned) [Polymorph I, 3-(4-amino-1-oxo-1,3-dihydro-2H-isoindole-2-yl)-piperidine-2,6-dione]
- Conclusion (solubility) ([2]; 0.1 mol/L HCl solution): slightly
- Conclusion (solubility) ([2]; 0.1 mol/L HCl solution, listed as Polymorph 1): slightly soluble
- Dissolving status ([2]; 0.1 mol/L HCl solution): fully
- Conclusion (solubility) ([2]; 0.1 mol/L NaOH solution): sparingly
- Conclusion (solubility) ([2]; 0.1 mol/L NaOH solution, listed as Polymorph 1): sparingly soluble
- Dissolving status ([2]; 0.1 mol/L NaOH solution): fully
- Conclusion (solubility) ([2]; DMF (N,N-dimethylformamide), listed as Polymorph 1): soluble
- Dissolving status ([2]; DMF): fully
- Conclusion (solubility) ([2]; DMSO (dimethylsulfoxide)): freely
- Conclusion (solubility) ([2]; DMSO (dimethylsulfoxide), listed as Polymorph 1): freely soluble
- Dissolving status ([2]; DMSO): fully
- Conclusion (solubility) ([2]; acetic acid, listed as Polymorph 1): soluble
- Dissolving status ([2]; acetic acid): fully
- Conclusion (solubility) ([2]; acetone): slightly
- Conclusion (solubility) ([2]; acetone, listed as Polymorph 1): slightly soluble
- Dissolving status ([2]; acetone): fully
- Conclusion (solubility) ([2]; acetonitrile): slightly
- Conclusion (solubility) ([2]; acetonitrile, listed as Polymorph 1): slightly soluble
- Dissolving status ([2]; acetonitrile): fully
- Conclusion (solubility) ([2]; ethanol): very slightly
- Conclusion (solubility) ([2]; ethanol, listed as Polymorph 1): very slightly soluble
- Dissolving status ([2]; ethanol): fully
- Conclusion (solubility) ([2]; ethyl acetate): very slightly
- Conclusion (solubility) ([2]; ethyl acetate, listed as Polymorph 1): very slightly soluble
- Dissolving status ([2]; ethyl acetate): fully
- Conclusion (solubility) ([2]; methanol): slightly
- Conclusion (solubility) ([2]; methanol, listed as Polymorph 1): slightly soluble
- Dissolving status ([2]; methanol): fully
- Conclusion (solubility) ([2]; water): very slightly
- Conclusion (solubility) ([2]; water, listed as Polymorph 1): very slightly soluble
- Dissolving status ([2]; water): fully
- Change of appearance and content (in words) [3]: few obvious change
- Moisture absorption (in words) [3]: very slight moisture absorption
- Appearance ([3]; 0 days): off-white powder
- Content ([3]; 0 days): 99.87%
- Appearance ([3]; 5 days): off-white powder
- Content ([3]; 5 days): 99.85%
- Weight gain of moisture absorption ([3]; 5 days): 0.65%
- Appearance ([3]; 10 days): off-white powder
- Content ([3]; 10 days): 99.85%
- Weight gain of moisture absorption ([3]; 10 days): 0.66%
- Appearance ([4]; 0 days): off-white powder
- Content ([4]; 0 days): 99.87%
- Related substance ([4]; 0 days): 0.05%
- Appearance ([4]; 5 days): off-white powder
- Content ([4]; 5 days): 99.86%
- Related substance ([4]; 5 days): 0.05%
- Appearance ([4]; 10 days): off-white powder
- Content ([4]; 10 days): 99.84%
- Related substance ([4]; 10 days): 0.06%
- Variation of appearance and content (in words) [4]: few significant variation

— US9101620B2, “Polymorph of 3-(substituteddihydroisoindolinone-2-yl)-2,6-dioxopiperidine, and pharmaceutical compositions thereof” (Nanjing Cavendish Bio-Engineering Technology Co., Ltd., priority 2009, dated 2015)
